# How the values were obtained:
# Format in all cases: in vitro ADME
# [1] = In vitro microsomal clearance, rat (CD)
# [2] = In vitro microsomal clearance, dog (Beagle)
# [3] = In vitro microsomal clearance, human
# [4] = In vitro microsomal clearance, rat (Wistar Han)
Clint [1],Clint [2],Clint [3],Clint [4],Structure (SMILES)
1.67 mL/min g liver,0.98 mL/min g liver,0.80 mL/min g liver,2.05 mL/min g liver,"O=C(Nc1cnn(Cc2c(F)cccc2C(F)(F)F)c1)c1c(F)cccc1F [Example 6, 2,6-Difluoro-N-(1-{[2-fluoro-6-(trifluoromethyl)phenyl]methyl}-1H-pyrazol-4-yl)benzamide]"
0.95 mL/min g liver,0.80 mL/min g liver,<0.5 mL/min g liver,1.16 mL/min g liver,"[2H]C([2H])(c1c(F)cccc1C(F)(F)F)n1cc(NC(=O)c2c(F)cccc2F)cn1 [Example 29, 2,6-Difluoro-N-(1-(2-fluoro-6-(trifluoromethyl)-d2-benzyl)-1H-pyrazol-4-yl)benzamide]"
